Measurements published in US20240207427A1, “SELECTIVE DRUG RELEASE FROM INTERNALIZED CONJUGATES OF BIOLOGICALLY ACTIVE COMPOUNDS” (priority 2021, published 2024).
Like-named read-outs stand apart in the source and are kept apart here.

Tests used:
Assay type in all cases: cell-based
[1] = tested on: non-small-cell lung cancer cells (Calu1); experiment: In vitro potency (CellTiter-Glo, 96 h), Calu1; settings: Homo sapiens, Calu-1, 96 h
Procedure: (§1) In vitro potency was assessed on multiple cancer cell lines. All cell lines were authenticated by STR profiling at IDEXX Bioresearch and cultured for no more than 2 months after resuscitation. Cells cultured in log-phase growth were seeded for 24 hours in 96-well plates containing […] RPMI 1640 supplemented with 20% FBS. Serial dilutions of antibody-drug conjugates in cell culture media were prepared at 4× working concentrations, and 50 μL of each dilution was added to the 96-well plates. Following addition of test articles, cells were incubated with test articles for 4 days at 37 0° C. After 96 hours, growth inhibition was assessed by CellTiterGlo® (Promega, Madison, WI) and luminescence was measured on a plate reader.
In Table 7, IC50 values for ADCs are given in ng/mL. Cell viability was determined by CellTiter-Glo staining after 96 h exposure to ADC. ND=Not Determined. Ag2 is an antibody targeting a ubiquitous and readily internalizable antigen. The cancer cell lines tested are renal carcinoma cells (786-0), melanoma cells (A2058), pancreatic cancer cells (BxPC3), non-small-cell lung cancer cells (Calu1), anaplastic large cell lymphoma cells (DEL, DELBVR, Karpas299), Hodgkin's lymphoma cells (L540cy), (Ls174T), breast cancer cells (MDA-MB-231), acute myeloid leukemia cells (MOLM-13), and B-lymphocyte cancer cells (SU-DHL4).
as §1, with “FBS.” for “FBS. Serial dilutions of antibody-drug conjugates in cell culture media were prepared at 4× working concentrations, and 50 μL of each dilution was added to the 96-well plates.”
Cell viability was determined by CellTiter-Glo staining after 96 h exposure to the compound. ND=Not Determined. The cancer cell lines tested are renal carcinoma cells (786-0), melanoma cells (A2058), pancreatic cancer cells (BxPC3), non-small-cell lung cancer cells (Calu1), anaplastic large cell lymphoma cells (DEL, DELBVR, Karpas299), Hodgkin's lymphoma cells (L540cy), (Ls 174T), breast cancer cells (MDA-MB-231), acute myeloid leukemia cells (MOLM-13), B-lymphocyte cancer cells (SU-DHL4), multiple myeloma cells (MM.1R), (U266), and melanoma cells (SK-MEL-5).
as §1, with “37°” for “37 0°”
In the following Tables IC50 values for ADCs and CPT free drugs are given in ng/mL and nmol/L concentrations. Cell viability was determined by CellTiter-Glo staining after 96 h exposure to ADC or CPT free drug.
Cell viability was determined by CellTiter-Glo staining after 96 h exposure to ADC. ND=Not Determined.

[2] = tested on: anaplastic large cell lymphoma cells (DELBVR); experiment: In vitro potency (CellTiter-Glo, 96 h), DELBVR
Method in brief: (§2)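 Cells in log-phase growth seeded 24 h in RPMI 1640 with 20% FBS, then exposed to serially diluted ADC or CPT free drug for 96 h at 37 °C. Growth inhibition read by CellTiter-Glo luminescence; IC50 reported in ng/mL or nmol/L.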

[3] = tested on: renal carcinoma cells (786-O); experiment: In vitro potency (CellTiter-Glo, 96 h), 786-O; settings: Homo sapiens, 786-0, 96 h
Method in brief: as §2

[4] = tested on: acute myeloid leukemia cells (MOLM-13); experiment: In vitro potency (CellTiter-Glo, 96 h), MOLM-13; settings: Homo sapiens, MOLM-13, 96 h
Method in brief: as §2

[5] = tested on: Hodgkin's lymphoma cells (L540cy); experiment: In vitro potency (CellTiter-Glo, 96 h), L540cy
Method in brief: as §2

melanoma cells (A2058) = experiment: In vitro potency (CellTiter-Glo, 96 h), A2058; settings: Homo sapiens, A2058, 96 h
Method in brief: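 Seed log-phase cells 24 h (RPMI 1640, 20% FBS); add ADC serial dilutions; incubate 96 h, 37 °C; read luminescence; IC50 in ng/mL.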

[6] = tested on: breast cancer cells (MDA-MB-231); experiment: In vitro potency (CellTiter-Glo, 96 h), MDA-MB-231; settings: Homo sapiens, MDA-MB-231, 96 h
Method in brief: as §2

Ls174T cells = experiment: In vitro potency (CellTiter-Glo, 96 h), Ls174T; settings: Homo sapiens, LS174T; CPT free drugs, Table 24; CellTiter-Glo after 96 h exposure; read-out: IC50 (nmol/L) Ls174T
Method in brief: as §2

[7] = tested on: anaplastic large cell lymphoma cells (Karpas299); experiment: In vitro potency (CellTiter-Glo, 96 h), Karpas299; settings: Homo sapiens, KARPAS-299, 96 h
Method in brief: as §2

[8] = tested on: anaplastic large cell lymphoma cells (DEL); experiment: In vitro potency (CellTiter-Glo, 96 h), DEL
Method in brief: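 Log-phase cells were seeded for 24 h in RPMI 1640 with 20% FBS, then exposed to serially diluted antibody-drug conjugates or free camptothecin drug for 4 days at 37 °C. Growth inhibition was read by luminescence, and IC50 values were reported in ng/mL and nmol/L.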

[9] = tested on: B-lymphocyte cancer cells (SU-DHL4); experiment: In vitro potency (CellTiter-Glo, 96 h), SU-DHL-4; settings: Homo sapiens, SU-DHL-4, 96 h
Method in brief: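 Authenticated lines (STR), used within 2 months of resuscitation, were seeded 24 h before treatment. Exposure to ADC dilutions lasted 96 h at 37 °C in RPMI 1640 with 20% FBS; viability was quantified luminescently.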

[10] = tested on: pancreatic cancer cells (BxPC3); experiment: In vitro potency (CellTiter-Glo, 96 h), BxPC3; settings: Homo sapiens, BXPC-3, 96 h
Method in brief: as §2

[11] = CPT free drugs, Table 24, CellTiter-Glo after 96 h exposure, read-out: IC50 (nmol/L) Calu1
[12] = CPT free drugs, Table 24, CellTiter-Glo after 96 h exposure, read-out: IC50 (nmol/L) DELBVR
[13] = CPT free drugs, Table 24, CellTiter-Glo after 96 h exposure, read-out: IC50 (nmol/L) 786-O
[14] = CPT free drugs, Table 24, CellTiter-Glo after 96 h exposure, read-out: IC50 (nmol/L) MOLM-13
[15] = CPT free drugs, Table 24, CellTiter-Glo after 96 h exposure, read-out: IC50 (nmol/L) L540cy
[16] = CPT free drugs, Table 24, CellTiter-Glo after 96 h exposure, read-out: IC50 (nmol/L) A2058
[17] = CPT free drugs, Table 24, CellTiter-Glo after 96 h exposure, read-out: IC50 (nmol/L) MDAMB231
[18] = CPT free drugs, Table 24, CellTiter-Glo after 96 h exposure, read-out: IC50 (nmol/L) Karpas299
[19] = CPT free drugs, Table 24, CellTiter-Glo after 96 h exposure, read-out: IC50 (nmol/L) DEL
[20] = CPT free drugs, Table 24, CellTiter-Glo after 96 h exposure, read-out: IC50 (nmol/L) SU-DHL-4
[21] = CPT free drugs, Table 24, CellTiter-Glo after 96 h exposure, read-out: IC50 (nmol/L) BxPC3

## CC[C@@]1(O)C(=O)OCc2c1cc1n(c2=O)Cc2c-1nc1cc3c(cc1c2CN)OCO3 [AMDCPT, (5S)-14-(aminomethyl)-5-ethyl-5-hydroxy-7,18,20-trioxa-11,24-diazahexacyclo[11.11.0.02,11.04,9.015,23.017,21]tetracosa-1(13),2,4(9),14,16,21,23-heptaene-6,10-dione, reference compound]
[1]; [11]
  IC50: 14.4 nmol/L
[1]; camptothecin free drug, 96 h, read-out: Calu1 IC50
  IC50: 52 nmol/L
[2]; [12]
  IC50: 0.8 nmol/L
[2]; camptothecin free drug, read-out: DELBVR IC50
  IC50: 1 nmol/L
[3]; [13]
  IC50: 1.9 nmol/L
[3]; camptothecin free drug, 96 h, read-out: 786-O IC50
  IC50: 3 nmol/L
[4]; [14]
  IC50: 4.3 nmol/L
[4]; camptothecin free drug, 96 h, read-out: MOLM-13 IC50
  IC50: 20 nmol/L
[5]; [15]
  IC50: 1 nmol/L
[5]; camptothecin free drug, read-out: L540cy IC50
  IC50: 1 nmol/L
Melanoma cells (A2058); [16]
  IC50: 0.7 nmol/L
Melanoma cells (A2058); camptothecin free drug, 96 h, read-out: A2058 IC50
  IC50: 3 nmol/L
[6]; [17]
  IC50: 1.4 nmol/L
[6]; camptothecin free drug, 96 h, read-out: MDAMB231 IC50
  IC50: 21 nmol/L
Ls174T cells
  IC50: 1 nmol/L
[7]; [18]
  IC50: 1.8 nmol/L
[7]; camptothecin free drug, 96 h, read-out: Karpas299 IC50
  IC50: 2 nmol/L
[8]; [19]
  IC50: 0.4 nmol/L
[8]; camptothecin free drug, read-out: DEL IC50
  IC50: 1 nmol/L
[9]; [20]
  IC50: 1 nmol/L
[9]; camptothecin free drug, 96 h, read-out: SU-DHL-4 IC50
  IC50: 2 nmol/L
[10]; [21]
  IC50: 3.6 nmol/L
[10]; camptothecin free drug, 96 h, read-out: BxPC3 IC50
  IC50: 3 nmol/L

## CC[C@@]1(O)C(=O)OCc2c1cc1n(c2=O)Cc2c-1nc1ccc(C)cc1c2CN [Compound 2a]
[1]; [11]
  IC50: 42 nmol/L
[2]; [12]
  IC50: 3 nmol/L
[3]; [13]
  IC50: 7 nmol/L
[4]; [14]
  IC50: 29 nmol/L
[5]; [15]
  IC50: 4 nmol/L
Melanoma cells (A2058); [16]
  IC50: 3 nmol/L
[6]; [17]
  IC50: 5 nmol/L
Ls174T cells
  IC50: 3.9 nmol/L
[7]; [18]
  IC50: 9 nmol/L
[8]; [19]
  IC50: 1 nmol/L
[9]; [20]
  IC50: 4 nmol/L
[10]; [21]
  IC50: 20 nmol/L

## CC[C@@]1(O)C(=O)OCc2c1cc1n(c2=O)Cc2c-1nc1cc(C)c(F)cc1c2CN [Compound 2aa]
[1]; [11]
  IC50: > 1000 nmol/L
[2]; [12]
  IC50: 87 nmol/L
[3]; [13]
  IC50: 265 nmol/L
[4]; [14]
  IC50: > 1000 nmol/L
[5]; [15]
  IC50: > 1000 nmol/L
Melanoma cells (A2058); [16]
  IC50: 130 nmol/L
[6]; [17]
  IC50: > 1000 nmol/L
Ls174T cells
  IC50: 240 nmol/L
[7]; [18]
  IC50: 380 nmol/L
[8]; [19]
  IC50: 82 nmol/L
[9]; [20]
  IC50: 227 nmol/L
[10]; [21]
  IC50: > 1000 nmol/L

## CC[C@@]1(O)C(=O)OCc2c1cc1n(c2=O)Cc2c-1nc1cc(Cl)c(C)c(F)c1c2CN [Compound 2ab]
[1]; [11]
  IC50: 22 nmol/L
[2]; [12]
  IC50: 3 nmol/L
[3]; [13]
  IC50: 6 nmol/L
[4]; [14]
  IC50: 53 nmol/L
[5]; [15]
  IC50: 4 nmol/L
Melanoma cells (A2058); [16]
  IC50: 3 nmol/L
[6]; [17]
  IC50: 30 nmol/L
Ls174T cells
  IC50: 6 nmol/L
[7]; [18]
  IC50: 7 nmol/L
[8]; [19]
  IC50: 2 nmol/L
[9]; [20]
  IC50: 4 nmol/L
[10]; [21]
  IC50: 12 nmol/L

## CC[C@@]1(O)C(=O)OCc2c1cc1n(c2=O)Cc2c-1nc1cc(F)cc(F)c1c2CN [Compound 2ac]
[1]; [11]
  IC50: 68 nmol/L
[2]; [12]
  IC50: 3 nmol/L
[3]; [13]
  IC50: 9 nmol/L
[4]; [14]
  IC50: 17 nmol/L
[5]; [15]
  IC50: 4 nmol/L
Melanoma cells (A2058); [16]
  IC50: 3 nmol/L
[6]; [17]
  IC50: 51 nmol/L
Ls174T cells
  IC50: 7 nmol/L
[7]; [18]
  IC50: 8 nmol/L
[8]; [19]
  IC50: 2 nmol/L
[9]; [20]
  IC50: 4 nmol/L
[10]; [21]
  IC50: 16 nmol/L

## CC[C@@]1(O)C(=O)OCc2c1cc1n(c2=O)Cc2c-1nc1cc(OC)c(OC)cc1c2CN [Compound 2ao, (19S)-10-(aminomethyl)-19-ethyl-19-hydroxy-6,7-dimethoxy-17-oxa-3,13-diazapentacyclo[11.8.0.02,11.04,9.015,20]henicosa-1(21),2,4(9),5,7,10,15 (20)-heptaene-14,18-dione]
[1]; [11]
  IC50: > 1000 nmol/L
[2]; [12]
  IC50: > 1000 nmol/L
[3]; [13]
  IC50: > 1000 nmol/L
[4]; [14]
  IC50: > 1000 nmol/L
[5]; [15]
  IC50: > 1000 nmol/L
Melanoma cells (A2058); [16]
  IC50: > 1000 nmol/L
[6]; [17]
  IC50: > 1000 nmol/L
Ls174T cells
  IC50: > 1000 nmol/L
[7]; [18]
  IC50: > 1000 nmol/L
[8]; [19]
  IC50: 937 nmol/L
[9]; [20]
  IC50: > 1000 nmol/L
[10]; [21]
  IC50: > 1000 nmol/L

## CC[C@@]1(O)C(=O)OCc2c1cc1n(c2=O)Cc2c-1nc1ccc(F)cc1c2CN [Compound 2b]
[1]; [11]
  IC50: 76 nmol/L
[2]; [12]
  IC50: 5.7 nmol/L
[3]; [13]
  IC50: 27 nmol/L
[4]; [14]
  IC50: 19 nmol/L
[5]; [15]
  IC50: 6 nmol/L
Melanoma cells (A2058); [16]
  IC50: 8 nmol/L
[6]; [17]
  IC50: 17 nmol/L
Ls174T cells
  IC50: 14 nmol/L
[7]; [18]
  IC50: 18 nmol/L
[8]; [19]
  IC50: 4 nmol/L
[9]; [20]
  IC50: 13 nmol/L
[10]; [21]
  IC50: 58 nmol/L

## CC[C@@]1(O)C(=O)OCc2c1cc1n(c2=O)Cc2c-1nc1ccc(Cl)cc1c2CN [Compound 2c]
[1]; [11]
  IC50: 45 nmol/L
[2]; [12]
  IC50: 3.3 nmol/L
[3]; [13]
  IC50: 6 nmol/L
[4]; [14]
  IC50: 21 nmol/L
[5]; [15]
  IC50: 5 nmol/L
Melanoma cells (A2058); [16]
  IC50: 3 nmol/L
[6]; [17]
  IC50: 6 nmol/L
Ls174T cells
  IC50: 3.9 nmol/L
[7]; [18]
  IC50: 8 nmol/L
[8]; [19]
  IC50: 1.7 nmol/L
[9]; [20]
  IC50: 3 nmol/L
[10]; [21]
  IC50: 19 nmol/L
